This passage reports IC50 and MLC results from patent US20220089661A1 (priority 2019, published 2022).

Where “and” joins values, the source holds several entries; their conditions need not be identical. Equal entries are not always repeated.

What all share (type): cell-based
For experiment [1], the system named is Botrytis cinerea.
The test system of experiment [2] is Fusarium graminearum.
The test system of experiment [3] is Botrytis cinerea. This is another data set of the same source.
Experiment [4] relates to Fusarium graminearum. The source holds these as a separate data set.

For “OeDef7 (RICESLSHRFKGPCVRRGNCAAVCQTEGFPGGLCRGFRRRCFCTKHC; listed as Olea europaea)”, the IC50 – broadly, the midpoint of a concentration-inhibition curve – with Botrytis cinerea [1] is 2000 to 3000 nM and 3000 to 4000 nM; with Fusarium graminearum [2], 1000 to 1500 nM and 2000 to 3000 nM. Further, the MLC is 4 µM and 6 µM in the experiment on Botrytis cinerea [3]; 3 µM and 6 µM with Fusarium graminearum [4].
